Legend:
[1] = tested on: biofilms formed from native saliva on hydroxyapatite (HAP) disks; assay: Active-attachment biofilm model, lactic acid production (residual metabolic activity); type: cell-based; details: for metabolic activity relative to control groups (water) and variable groups: Example 5
Procedure: (§1) The active-attachment biofilm model has been previously described by Extercate et al. Caries Research 2010; 44: 372-379, the contents of which are incorporated by reference herein. The biofilm model consists of a metal lid with 24 clamps carrying hydroxyapatite (HAP) disks. The model is inoculated in 24-well plates with native saliva. Biofilms were formed via active recruitment of bacteria onto free-hanging HAP disks.
(§2) Treatment is performed after formation of a 24 h biofilm. Lactic acid production is determined to assess the residual metabolic activity of biofilms after repeated exposure to test products. The assay is conducted using a L-Lactate Assay Kit according to the manufacturer's protocol (Cayman Chemical Company, Cat. No. 700510).
The anti-metabolic activity of arginine alone and combined with zinc on bacteria in solutions and in toothpastes is measured by lactic acid production during a 3-hour window after the last treatment. The bacterial metabolic activity, as measured by lactic acid production, decreases in (toothpaste) groups with:
The antibacterial activity of serine and lysine is assessed individually and in combination with zinc and determined by lactic acid production during a 3-hour window after the last treatment according to Example 1.
The anti-metabolic activity of serine and lysine individually, and in combination with zinc, are tested. Using the biofilm model described in Example 1, antibacterial activity of serine and lysine is tested individually and in combination with zinc.

[2] = tested on: biofilms formed from native saliva on hydroxyapatite (HAP) disks; assay: Active-attachment biofilm model, colony forming units (live counts); type: cell-based; details: for number of CFUs relative to control solutions (water) and variable groups: Example 4; for number of CFUs relative to control solutions (water) and variable groups / Log CFU/ml: solutions; for Log CFU/ml: Example 4 (serine, lysine, with or without zinc)
Procedure: as §1, §2
Colony forming units (CFUs) are determined to assess the anti-bacterial efficacy of test solutions after repeated exposure to biofilms. HAP disks are removed from the lid and transferred to 1.5 ml CPW for sonication. CFUs are determined by colony counting. Statistical analysis was performed using Minitab 16 Software. ANOVA and Tukey test were performed on available CFU counts and lactic acid values.
Anti-bacterial efficacy of arginine alone and in combination with zinc in solutions and in toothpastes is tested by live counts using the biofilm model described in Example 1. The approximate number of live counts (CFUs) are as follows: […]

[3] = solution, lactic acid production during a 3-hour window after the last treatment
[4] = solutions, Example 5 (serine, lysine, with or without zinc)

Row | SMILES | Lactate [1, 3] | CFU/ml ([2]; solution, live counts, biofilm model of Example 1) | metabolic activity relative to control groups (water) and variable groups ([1]; solutions) | Lactate [1, 4] | number of CFUs relative to control solutions (water) and variable groups [2] | Log CFU/ml [2]
1 | [O-2].[Zn+2] [0.5% zinc oxide, zinc oxide] | 6.25 mM | 9.65 Log CFU/ml | – | – | – | –
2 | N[C@@H](CO)C(=O)O [4% serine, serine] | – | – | do not demonstrate a decrease in metabolic activity | 2.4 mM | do not demonstrate a decrease | 9.45 Log CFU/ml
3 | NCCCC[C@H](N)C(=O)O [4% lysine, lysine] | – | – | do not demonstrate a decrease in metabolic activity | 2.7 mM | do not demonstrate a decrease | 9.37 Log CFU/ml
4 | O=C([O-])CC(O)(CC(=O)[O-])C(=O)[O-].O=C([O-])CC(O)(CC(=O)[O-])C(=O)[O-].[Zn+2].[Zn+2].[Zn+2] [0.25% zinc citrate, zinc citrate] | 6.0 mM | – | – | – | – | –
